Data published in US20060134102A1, “Lymphotoxin beta receptor agents in combination with chemotherapeutic agents” (Biogen Idec MA Inc., priority 2002, published 2006).

System: KM-20L2 human colorectal adenocarcinoma
Assay: KM-20L2 xenograft model: growth of established KM-20L2 human colorectal tumors in athymic nude mice (tumor volume/weight, % T/C, Fa, Combination Index)
Format: in vivo

For “huCBE11: humanized anti-LT-β-R agonist antibody (LTβ receptor-activating mAb), described in WO 02/30986”, the “Median Effect Dose” value (Combined (1:0.63 huCBE11:Camptosar), dose of the labelled agent in the combination, Day 13) was 10.7 mg/kg, the “Median Effect Dose” value (Combined (1:0.63 huCBE11:Camptosar), dose of the labelled agent in the combination, Day 16) was 2.6 mg/kg and the “Median Effect Dose” value (Combined (1:0.63 huCBE11:Camptosar), dose of the labelled agent in the combination, Day 20) was 1.0 mg/kg. For the same substance, the “Median Effect Dose” value (Combined (1:0.63 huCBE11:Camptosar), dose of the labelled agent in the combination, Day 23) was 1.1 mg/kg, the “Median Effect Dose” value (Combined (1:0.63 huCBE11:Camptosar), dose of the labelled agent in the combination, Day 27) was 1.5 mg/kg and the “Median Effect Dose” value (Combined (1:0.63 huCBE11:Camptosar), dose of the labelled agent in the combination, Day 30) was 1.8 mg/kg. For the same substance, the “Median Effect Dose” value (Combined (1:0.63 huCBE11:Camptosar), dose of the labelled agent in the combination, Day 34) was 1.8 mg/kg, the “Median Effect Dose” value (Combined (1:0.63 huCBE11:Camptosar), dose of the labelled agent in the combination, Day 37) was 1.6 mg/kg and the “Median Effect Dose” value (Combined (1:0.63 huCBE11:Camptosar), dose of the labelled agent in the combination, Day 41) was 1.5 mg/kg. For the same substance, the “Median Effect Dose” value (Given Separately, Day 13) was 174 mg/kg, the “Median Effect Dose” value (Given Separately, Day 16) was 981 mg/kg and the “Median Effect Dose” value (Given Separately, Day 20) was 32.7 mg/kg. The “Median Effect Dose” value (Given Separately, Day 23) was 9.0 mg/kg, the “Median Effect Dose” value (Given Separately, Day 27) was 2.1 mg/kg and the “Median Effect Dose” value (Given Separately, Day 30) was 3.8 mg/kg. The “Median Effect Dose” value (Given Separately, Day 34) was 3.6 mg/kg, the “Median Effect Dose” value (Given Separately, Day 37) was 6.6 mg/kg and the “Median Effect Dose” value (Given Separately, Day 41) was 3.0 mg/kg. For the same substance, the “Median Effect Dose” value (Given Separately; Day 16) was 2077 mg/kg, the “Median Effect Dose” value (Given Separately; Day 20) was 9.5 mg/kg and the “Median Effect Dose” value (Given Separately; Day 23) was 4.8 mg/kg. For the same substance, the “Median Effect Dose” value (Given Separately; Day 27) was 3.3 mg/kg, the “Median Effect Dose” value (Given Separately; Day 30) was 3.8 mg/kg and the “Median Effect Dose” value (Given Separately; Day 34) was 3.2 mg/kg. For the same substance, the “Median Effect Dose” value (Given Separately; Day 37) was 2.7 mg/kg, the “Median Effect Dose” value (Given Separately; Day 41) was 2.4 mg/kg and the “Median Effect Dose” value (Given Separately; Day 43) was 2.4 mg/kg. For the same substance, the “Median Effect Dose” value (dose of the labelled agent when huCBE11 and Gemcitabine Combined (4:5); Day 16) was 3.6 mg/kg, the “Median Effect Dose” value (dose of the labelled agent when huCBE11 and Gemcitabine Combined (4:5); Day 20) was 1.3 mg/kg and the “Median Effect Dose” value (dose of the labelled agent when huCBE11 and Gemcitabine Combined (4:5); Day 23) was 0.6 mg/kg. For the same substance, the “Median Effect Dose” value (dose of the labelled agent when huCBE11 and Gemcitabine Combined (4:5); Day 27) was 0.7 mg/kg, the “Median Effect Dose” value (dose of the labelled agent when huCBE11 and Gemcitabine Combined (4:5); Day 30) was 0.6 mg/kg and the “Median Effect Dose” value (dose of the labelled agent when huCBE11 and Gemcitabine Combined (4:5); Day 34) was 0.6 mg/kg. For the same substance, the “Median Effect Dose” value (dose of the labelled agent when huCBE11 and Gemcitabine Combined (4:5); Day 37) was 0.4 mg/kg, the “Median Effect Dose” value (dose of the labelled agent when huCBE11 and Gemcitabine Combined (4:5); Day 41) was 0.6 mg/kg and the “Median Effect Dose” value (dose of the labelled agent when huCBE11 and Gemcitabine Combined (4:5); Day 43) was 0.4 mg/kg. For the same substance, the “% T/C” value (hCBE11 2 mg/kg; Days 41 to 55) was at most 42%, the “% T/C” value (hCBE11 4 mg/kg; Days 50 and 55) was at most 42% and the “Mean Fraction Affected (Fa)” value (huCBE11 0.2 mg/kg alone, Day 9) was −0.026. The “Mean Fraction Affected (Fa)” value (huCBE11 0.2 mg/kg alone, Day 13) was 0.003, the “Mean Fraction Affected (Fa)” value (huCBE11 0.2 mg/kg alone, Day 16) was 0.125 and the “Mean Fraction Affected (Fa)” value (huCBE11 0.2 mg/kg alone, Day 20) was 0.249. The “Mean Fraction Affected (Fa)” value (huCBE11 0.2 mg/kg alone, Day 23) was 0.294, the “Mean Fraction Affected (Fa)” value (huCBE11 0.2 mg/kg alone, Day 27) was 0.377 and the “Mean Fraction Affected (Fa)” value (huCBE11 0.2 mg/kg alone, Day 30) was 0.369. The “Mean Fraction Affected (Fa)” value (huCBE11 0.2 mg/kg alone, Day 34) was 0.345, the “Mean Fraction Affected (Fa)” value (huCBE11 0.2 mg/kg alone, Day 37) was 0.372 and the “Mean Fraction Affected (Fa)” value (huCBE11 0.2 mg/kg alone, Day 41) was 0.381. For the same substance, the “Mean Fraction Affected (Fa)” value (huCBE11 0.2 mg/kg; Day 9) was 0.063, the “Mean Fraction Affected/Fraction Unaffected (Fa/Fu)” value (huCBE11 0.2 mg/kg; Day 9) was 0.067 and the “Mean Tumor Volume” value (huCBE11 0.2 mg/kg; Day 9) was 104.8 cubic mm. For the same substance, the “Mean Tumor Volume Decrease” value (huCBE11 0.2 mg/kg; Day 9) was 7.0 cubic mm, the “Mean Fraction Affected (Fa)” value (huCBE11 0.2 mg/kg; Day 13) was 0.071 and the “Mean Fraction Affected/Fraction Unaffected (Fa/Fu)” value (huCBE11 0.2 mg/kg; Day 13) was 0.076. The “Mean Tumor Volume” value (huCBE11 0.2 mg/kg; Day 13) was 160.4 cubic mm, the “Mean Tumor Volume Decrease” value (huCBE11 0.2 mg/kg; Day 13) was 12.2 cubic mm and the “Mean Fraction Affected (Fa)” value (huCBE11 0.2 mg/kg; Day 16) was 0.055. The “Mean Fraction Affected/Fraction Unaffected (Fa/Fu)” value (huCBE11 0.2 mg/kg; Day 16) was 0.058, the “Mean Tumor Volume” value (huCBE11 0.2 mg/kg; Day 16) was 250.5 cubic mm and the “Mean Tumor Volume Decrease” value (huCBE11 0.2 mg/kg; Day 16) was 14.5 cubic mm. For the same substance, the “Mean Fraction Affected (Fa)” value (huCBE11 0.2 mg/kg; Day 20) was 0.073, the “Mean Fraction Affected/Fraction Unaffected (Fa/Fu)” value (huCBE11 0.2 mg/kg; Day 20) was 0.078 and the “Mean Tumor Volume” value (huCBE11 0.2 mg/kg; Day 20) was 371.9 cubic mm. For the same substance, the “Mean Tumor Volume Decrease” value (huCBE11 0.2 mg/kg; Day 20) was 29.1 cubic mm, the “Mean Fraction Affected (Fa)” value (huCBE11 0.2 mg/kg; Day 23) was 0.016 and the “Mean Fraction Affected/Fraction Unaffected (Fa/Fu)” value (huCBE11 0.2 mg/kg; Day 23) was 0.016. The “Mean Tumor Volume” value (huCBE11 0.2 mg/kg; Day 23) was 518.7 cubic mm, the “Mean Tumor Volume Decrease” value (huCBE11 0.2 mg/kg; Day 23) was 8.5 cubic mm and the “Mean Fraction Affected/Fraction Unaffected (Fa/Fu)” value (huCBE11 0.2 mg/kg; Day 27) was −0.008. The “Mean Tumor Volume” value (huCBE11 0.2 mg/kg; Day 27) was 673.8 cubic mm, the “Mean Tumor Volume Decrease” value (huCBE11 0.2 mg/kg; Day 27) was −5.2 cubic mm and the “Mean Fraction Affected (Fa)” value (huCBE11 0.2 mg/kg; Day 30) was 0.030. The “Mean Fraction Affected/Fraction Unaffected (Fa/Fu)” value (huCBE11 0.2 mg/kg; Day 30) was 0.030, the “Mean Tumor Volume” value (huCBE11 0.2 mg/kg; Day 30) was 792.1 cubic mm and the “Mean Tumor Volume Decrease” value (huCBE11 0.2 mg/kg; Day 30) was 24.1 cubic mm. For the same substance, the “Mean Fraction Affected (Fa)” value (huCBE11 0.2 mg/kg; Day 34) was 0.118, the “Mean Fraction Affected/Fraction Unaffected (Fa/Fu)” value (huCBE11 0.2 mg/kg; Day 34) was 0.134 and the “Mean Tumor Volume” value (huCBE11 0.2 mg/kg; Day 34) was 926.4 cubic mm. For the same substance, the “Mean Tumor Volume Decrease” value (huCBE11 0.2 mg/kg; Day 34) was 123.9 cubic mm, the “Mean Fraction Affected (Fa)” value (huCBE11 0.2 mg/kg; Day 37) was 0.132 and the “Mean Fraction Affected/Fraction Unaffected (Fa/Fu)” value (huCBE11 0.2 mg/kg; Day 37) was 0.152. The “Mean Tumor Volume” value (huCBE11 0.2 mg/kg; Day 37) was 1048.5 cubic mm, the “Mean Tumor Volume Decrease” value (huCBE11 0.2 mg/kg; Day 37) was 159.5 cubic mm and the “Mean Fraction Affected (Fa)” value (huCBE11 0.2 mg/kg; Day 41) was 0.120. The “Mean Fraction Affected/Fraction Unaffected (Fa/Fu)” value (huCBE11 0.2 mg/kg; Day 41) was 0.137, the “Mean Tumor Volume” value (huCBE11 0.2 mg/kg; Day 41) was 1266.0 cubic mm and the “Mean Tumor Volume Decrease” value (huCBE11 0.2 mg/kg; Day 41) was 173.4 cubic mm. The “Mean Fraction Affected (Fa)” value (huCBE11 0.2 mg/kg; Day 43) was 0.096, the “Mean Fraction Affected/Fraction Unaffected (Fa/Fu)” value (huCBE11 0.2 mg/kg; Day 43) was 0.107 and the “Mean Tumor Volume” value (huCBE11 0.2 mg/kg; Day 43) was 1452.0 cubic mm. For the same substance, the “Mean Tumor Volume Decrease” value (huCBE11 0.2 mg/kg; Day 43) was 154.7 cubic mm, the “Mean Fraction Affected (Fa)” value (huCBE11 2 mg/kg alone, Day 9) was 0.101 and the “Mean Fraction Affected (Fa)” value (huCBE11 2 mg/kg alone, Day 13) was 0.137. The “Mean Fraction Affected (Fa)” value (huCBE11 2 mg/kg alone, Day 16) was 0.322, the “Mean Fraction Affected (Fa)” value (huCBE11 2 mg/kg alone, Day 20) was 0.458 and the “Mean Fraction Affected (Fa)” value (huCBE11 2 mg/kg alone, Day 23) was 0.497. For the same substance, the “Mean Fraction Affected (Fa)” value (huCBE11 2 mg/kg alone, Day 27) was 0.542, the “Mean Fraction Affected (Fa)” value (huCBE11 2 mg/kg alone, Day 30) was 0.524 and the “Mean Fraction Affected (Fa)” value (huCBE11 2 mg/kg alone, Day 34) was 0.541. The “Mean Fraction Affected (Fa)” value (huCBE11 2 mg/kg alone, Day 37) was 0.485, the “Mean Fraction Affected (Fa)” value (huCBE11 2 mg/kg alone, Day 41) was 0.541 and the “% T/C, lowest observed” value (huCBE11 2 mg/kg and 4 mg/kg; dose ranging study) was over 42%.
